Here are results for two compounds from US6781020B2, “Water soluble bactericide and producing method thereof” (VMC Co., Ltd., priority 2001, dated 2004).

Data set [1] concerns standard strain of Pseudomonas aeruginosa. The experiment in a line: bactericidal ability test, development of bacteria after contact and overnight culture. The class given is cell-based. The following applies: ozone-oxidized glycerin of about 10 unit/g, cultured overnight at 37° C., FIG. 1.
Data set [2] relates to clinical isolated strain of Salmonella. The following applies: ozone-oxidized glycerin of about 10 unit/g, cultured overnight at 37° C., FIG. 1.
For data set [3], the system named is standard strain of Escherichia coli. The experiment in a line: bactericidal ability test, development of bacteria after contact and overnight culture. The class given is cell-based. The following applies: ozone-oxidized glycerin of about 10 unit/g, cultured overnight at 37° C., FIG. 1.
Data set [4] relates to standard strain of Staphylococcus aureus. The description is as above. It counts as cell-based. The following applies: ozone-oxidized glycerin of about 10 unit/g, cultured overnight at 37° C., FIG. 1.
The next data set has as its target T1, catalase (Homo sapiens, UniProt P04040).
T1 sequence (P04040 1-527): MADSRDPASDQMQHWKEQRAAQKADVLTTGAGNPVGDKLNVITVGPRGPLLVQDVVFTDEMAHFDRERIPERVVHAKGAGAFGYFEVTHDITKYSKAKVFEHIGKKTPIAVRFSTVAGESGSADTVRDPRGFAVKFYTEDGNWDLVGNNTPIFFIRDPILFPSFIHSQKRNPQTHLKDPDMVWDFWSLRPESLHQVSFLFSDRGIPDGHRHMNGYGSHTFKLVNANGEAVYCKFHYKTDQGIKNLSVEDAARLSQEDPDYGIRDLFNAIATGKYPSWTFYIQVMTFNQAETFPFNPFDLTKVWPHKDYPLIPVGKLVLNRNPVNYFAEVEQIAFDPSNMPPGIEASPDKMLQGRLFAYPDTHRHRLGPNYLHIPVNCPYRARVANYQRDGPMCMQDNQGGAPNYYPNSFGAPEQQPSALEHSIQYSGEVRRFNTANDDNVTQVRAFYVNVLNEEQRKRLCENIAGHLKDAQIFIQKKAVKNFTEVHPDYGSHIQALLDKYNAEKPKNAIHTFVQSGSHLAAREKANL
The experiment in a line: catalase test, oxidation ability in time sequence by potassium iodide titration. The class given is physicochemical. The following applies: catalase final concentration 0.003%.

For `OCC(O)CO` [glycerin], the bactericidal effects entry in data set [1], in data set [2], in data set [3] and in data set [4] was “not recognized” each time.

Regarding `OO` [hydrogen peroxide], the “time until the oxidation ability almost disappeared” value at catalase (0.03% hydrogen peroxide solution, FIG. 8 left) was 5 min. Moreover, the “attenuation of the oxidation ability due to catalase” value at catalase (FIG. 8) is “rapidly attenuated”.
